Laboratory results reported in patent US12077503B2, “Substituted cyclic amides and their use as herbicides” (FMC CORPORATION, priority 2015, dated 2024).
Like-named read-outs stand apart in the source and are kept apart here.

Key:
Assay in all cases: Test A preemergence
Format in all cases: in vivo
[1] = tested on: ragweed (common ragweed, Ambrosia elatior); conditions: Ambrosia artemisiifolia, pre-emergence, 240 h; for pest or weed control at 500 g/ha: 500 g ai/ha; for pest or weed control at 125 g/ha: 125 g ai/ha
Method in brief: (§1)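 Seeds sprayed preemergence with a directed soil spray, or plants at 2 to 10 cm height and one- to two-leaf stage sprayed postemergence, with test chemicals in a non-phytotoxic solvent mixture containing surfactant, in loam soil–sand blend. Injury rated visually against untreated controls after about 10 d in greenhouse, 0 (no effect) to 100 (complete control).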

[2] = tested on: Kochia (Kochia scoparia); conditions: Bassia scoparia, pre-emergence, 240 h; for pest or weed control at 125 g/ha: 125 g ai/ha; for pest or weed control at 500 g/ha: 500 g ai/ha
Method in brief: as §1

[3] = tested on: ryegrass, Italian (Italian ryegrass, Lolium multiflorum); conditions: Lolium multiflorum, pre-emergence, 240 h; for pest or weed control at 125 g/ha: 125 g ai/ha; for pest or weed control at 500 g/ha: 500 g ai/ha
Method in brief: as §1

[4] = tested on: giant foxtail (Setaria faberii); conditions: Setaria faberi, pre-emergence, 240 h; for pest or weed control at 125 g/ha: 125 g ai/ha; for pest or weed control at 500 g/ha: 500 g ai/ha
Method in brief: as §1

[5] = tested on: pigweed (Amaranthus retroflexus); conditions: Amaranthus retroflexus, pre-emergence, 240 h; for pest or weed control at 125 g/ha: 125 g ai/ha; for pest or weed control at 500 g/ha: 500 g ai/ha
[6] = tested on: barnyardgrass (Echinochloa crus-galli); conditions: Echinochloa crus-galli, pre-emergence, 240 h; for pest or weed control at 125 g/ha: 125 g ai/ha; for pest or weed control at 500 g/ha: 500 g ai/ha
Method in brief: as §1

[7] = preemergence, 0 to 100 scale where 0 is no effect and 100 is complete control, read-out: Ragweed plant response rating
[8] = preemergence, visual injury rating, 0 to 100 scale where 0 is no effect and 100 is complete control, approximately 10 d, read-out: Kochia plant response rating
[9] = preemergence, 0 to 100 scale where 0 is no effect and 100 is complete control, read-out: Kochia plant response rating
[10] = preemergence, visual injury rating, 0 to 100 scale where 0 is no effect and 100 is complete control, approximately 10 d, read-out: Ryegrass, Italian plant response rating
[11] = preemergence, 0 to 100 scale where 0 is no effect and 100 is complete control, read-out: Ryegrass, Italian plant response rating
[12] = preemergence, visual injury rating, 0 to 100 scale where 0 is no effect and 100 is complete control, approximately 10 d, read-out: Foxtail, Giant plant response rating
[13] = preemergence, 0 to 100 scale where 0 is no effect and 100 is complete control, read-out: Foxtail, Giant plant response rating
[14] = preemergence, visual injury rating, 0 to 100 scale where 0 is no effect and 100 is complete control, approximately 10 d, read-out: Pigweed plant response rating
[15] = preemergence, 0 to 100 scale where 0 is no effect and 100 is complete control, read-out: Pigweed plant response rating
[16] = preemergence, visual injury rating, 0 to 100 scale where 0 is no effect and 100 is complete control, approximately 10 d, read-out: Barnyardgrass plant response rating
[17] = preemergence, 0 to 100 scale where 0 is no effect and 100 is complete control, read-out: Barnyardgrass plant response rating
[18] = preemergence, visual injury rating, 0 to 100 scale where 0 is no effect and 100 is complete control, approximately 10 d, read-out: Ragweed plant response rating
[19] = Preemergence, 0 to 100 scale (0 no effect, 100 complete control), read-out: Plant response rating, Kochia
[20] = Preemergence, 0 to 100 scale (0 no effect, 100 complete control), read-out: Plant response rating, Ryegrass, Italian
[21] = Preemergence, 0 to 100 scale (0 no effect, 100 complete control), read-out: Plant response rating, Foxtail, Giant
[22] = Preemergence, 0 to 100 scale (0 no effect, 100 complete control), read-out: Plant response rating, Pigweed
[23] = Preemergence, 0 to 100 scale (0 no effect, 100 complete control), read-out: Plant response rating, Barnyardgrass
[24] = Preemergence, 0 to 100 scale (0 no effect, 100 complete control), read-out: Plant response rating, Ragweed

SMILES	pest or weed control at 500 g/ha [1, 7]	pest or weed control at 125 g/ha [2, 8]	pest or weed control at 500 g/ha [2, 9]	pest or weed control at 125 g/ha [3, 10]	pest or weed control at 500 g/ha [3, 11]	pest or weed control at 125 g/ha [4, 12]	pest or weed control at 500 g/ha [4, 13]	pest or weed control at 125 g/ha [5, 14]	pest or weed control at 500 g/ha [5, 15]	pest or weed control at 125 g/ha [6, 16]	pest or weed control at 500 g/ha [6, 17]	pest or weed control at 125 g/ha [1, 18]	pest or weed control at 125 g/ha [2, 19]	pest or weed control at 125 g/ha [3, 20]	pest or weed control at 125 g/ha [4, 21]	pest or weed control at 125 g/ha [5, 22]	pest or weed control at 125 g/ha [6, 23]	pest or weed control at 125 g/ha [1, 24]
Cc1cc([C@H]2CNC(=O)[C@@H]2C(=O)Nc2ccccc2C(F)(F)F)ccc1Cl [Compound 1245]	20%	0%	20%	0%	60%	80%	90%	0%	0%	50%	80%	–	–	–	–	–	–	–
Cc1ccc([C@H]2CNC(=O)[C@@H]2C(=O)Nc2c(F)cccc2F)cc1C [Compound 1247]	0%	0%	30%	0%	20%	20%	80%	0%	0%	70%	90%	0%	–	–	–	–	–	–
CSc1ccccc1NC(=O)[C@H]1C(=O)N(C)C[C@@H]1c1cccc(C(F)(F)F)c1 [Compound 1249]	70%	–	90%	30%	100%	100%	100%	80%	90%	100%	100%	30%	–	–	–	–	–	–
CSc1ccccc1NC(=O)[C@H]1C(=O)N(C)C[C@@H]1c1ccc2c(c1)OC(F)(F)O2 [Compound 1251]	80%	80%	90%	50%	60%	100%	100%	90%	90%	100%	100%	70%	–	–	–	–	–	–
Cc1c(F)cccc1NC(=O)[C@H]1C(=O)N(C)C[C@@H]1c1ccc2c(c1)OC(F)(F)O2 [Compound 1252]	70%	80%	80%	80%	90%	90%	100%	70%	90%	100%	100%	60%	–	–	–	–	–	–
CN1C[C@H](c2ccc(F)c(C#N)c2)[C@@H](C(=O)Nc2ccccc2F)C1=O [Compound 1254]	30%	20%	70%	0%	40%	90%	100%	20%	70%	100%	100%	0%	–	–	–	–	–	–
CSc1ccccc1NC(=O)[C@H]1C(=O)NC[C@@H]1c1ccc2c(c1)OCO2 [Compound 1257]	0%	0%	0%	0%	0%	0%	0%	0%	0%	0%	0%	0%	–	–	–	–	–	–
COc1cc([C@H]2CN(C)C(=O)[C@@H]2C(=O)Nc2cccc(F)c2F)ccc1F [Compound 1299]	70%	70%	70%	30%	70%	90%	90%	20%	60%	90%	90%	30%	–	–	–	–	–	–
COc1cc([C@H]2CN(C)C(=O)[C@@H]2C(=O)Nc2ccccc2SC)ccc1F [Compound 1301]	20%	30%	60%	0%	0%	90%	90%	0%	30%	30%	90%	0%	–	–	–	–	–	–
Cc1c(F)cccc1NC(=O)[C@H]1C(=O)NC[C@@H]1c1cccc2c1OC(F)(F)O2 [Compound 1305]	0%	0%	0%	0%	0%	90%	90%	0%	0%	70%	90%	0%	–	–	–	–	–	–
Cc1cc([C@H]2CN(C)C(=O)[C@@H]2C(=O)Nc2cccc(F)c2C)ccc1F [Compound 1311]	90%	–	100%	–	–	–	100%	–	20%	–	100%	–	70%	70%	100%	0%	100%	–
CN1C[C@H](c2cccc(C(C)(F)F)c2)[C@@H](C(=O)Nc2cccc(F)c2F)C1=O [Compound 1316]	70%	–	80%	–	–	–	90%	–	80%	–	90%	–	80%	70%	90%	70%	90%	0%
CN1C[C@H](c2cccc(C(C)(F)F)c2)[C@@H](C(=O)Nc2ccccc2F)C1=O [Compound 1317]	40%	–	80%	–	–	–	100%	–	60%	–	90%	–	60%	20%	90%	0%	90%	0%
